# Values of other authors, collected in PubChem BioAssay AID1259409 (Chemical Carcinogenesis Research Information System (CCRIS), 2018).
# Test system: rodent chemically induced tumor inhibition, incidence and multiplicity
# Assay: CCRIS tumor inhibitor studies
# Conditions: Species: MOUSE
smiles,measurement,setting,value
S=C=NCCc1ccccc1,"tumour outcome (control, treated, inhibition, significance)","Carcinogen: 4(METHYLNITROSAMINO)1-(3-PYRIDYL)-1-BUTANONE, 64091-91-4, Dose [Inhibitor]: 0, 5 UMOL IN 0.1 ML CORN OIL WITH 10% DMSO 2 HR PRIOR TO CARCINOGEN DOSE (STUDY DURATION: 16 WK), Route [Inhibitor]: GAVAGE, Strain/Sex: STRAIN-A/FEMALE, Target Tissue: Type of Lesion: LUNG: ADENOMA, Dose [Carcinogen]: 10 UMOL IN 0.1 ML SALINE ONCE, Promoter: NONE USED","100%, 100%, 0%, not significant"
same,"tumour outcome (control, treated, inhibition, significance)","Carcinogen: 4-(METHYLNITROSAMINO)-1-(3-PYRIDYL)-1-BUTANONE (NNK) [64091-91-4], Dose [Inhibitor]: 1.5 UM/G DIET, BEGINNING 13 WKS AFTER CARCINOGEN/PROMOTER TREATMENT (STUDY DURATION: 42 WK), Route [Inhibitor]: DIET, Strain/Sex: A/J/FEMALE, Target Tissue: Type of Lesion: LUNG: ADENOCARCINOMA, Dose [Carcinogen]: 3 µM WEEKLY FOR 8 DOSES, Promoter: BENZO[A]PYRENE [50-32-8]","42%, 35%, 17%, not significant"
same,"tumour outcome (control, treated, inhibition, significance)","Carcinogen: 4-(METHYLNITROSAMINO)-1-(3-PYRIDYL)-1-BUTANONE (NNK) [64091-91-4], Dose [Inhibitor]: 1.5 UM/G DIET, BEGINNING 13 WKS AFTER CARCINOGEN/PROMOTER TREATMENT (STUDY DURATION: 42 WK), Route [Inhibitor]: DIET, Strain/Sex: A/J/FEMALE, Target Tissue: Type of Lesion: LUNG: ADENOMA, Dose [Carcinogen]: 3 µM WEEKLY FOR 8 DOSES, Promoter: BENZO[A]PYRENE [50-32-8]","100%, 95%, 5%, not significant"
same,"tumour outcome (control, treated, inhibition, significance)","Carcinogen: 4-(METHYLNITROSAMINO)-1-(3-PYRIDYL)-1-BUTANONE (NNK) [64091-91-4], Dose [Inhibitor]: 3 UM/G DIET, BEGINNING 13 WKS AFTER CARCINOGEN/PROMOTER TREATMENT (STUDY DURATION: 42 WK), Route [Inhibitor]: DIET, Strain/Sex: A/J/FEMALE, Target Tissue: Type of Lesion: LUNG: ADENOCARCINOMA, Dose [Carcinogen]: 3 µM WEEKLY FOR 8 DOSES, Promoter: BENZO[A]PYRENE [50-32-8]","42%, 19%, 55%, p<0.05"
same,"tumour outcome (control, treated, inhibition, significance)","Carcinogen: 4-(METHYLNITROSAMINO)-1-(3-PYRIDYL)-1-BUTANONE [64091-91-4] (NNK), Dose [Inhibitor]: 3 UM/G DIET, BEGINNING 13 WKS AFTER CARCINOGEN/PROMOTER TREATMENT (STUDY DURATION: 42 WK), Route [Inhibitor]: DIET, Strain/Sex: A/J/FEMALE, Target Tissue: Type of Lesion: LUNG: ADENOMA, Dose [Carcinogen]: 3 µM WEEKLY FOR 8 DOSES, Promoter: BENZO[A]PYRENE [50-32-8]","100%, 100%, 0%, not significant"
same,"tumour outcome (control, treated, inhibition, significance)","Carcinogen: 4-(METHYLNITROSAMINO)-1-(3-PYRIDYL)-1-BUTANONE [64091-91-4], BENZO[A]PYRENE [50-32-8], Dose [Inhibitor]: 0.3 UMOL/G IN DIET FOR 10 WK BEGINNING 1 WK PRIOR TO FIRST CARCINOGEN DOSE (STUDY DURATION: 28 WK), Route [Inhibitor]: ORAL, Strain/Sex: A/J/FEMALE, Target Tissue: Type of Lesion: LUNG: TUMOR, Dose [Carcinogen]: 3 UMOL BAP + 3 UMOL NNK IN 0.1 ML COTTONSEED OIL 1X/WK FOR 8 WK (STUDY DURATION: 28 WK), Promoter: NONE","100%, 100%, 0%, not calculated"
same,"tumour outcome (control, treated, inhibition, significance)","Carcinogen: 4-(METHYLNITROSAMINO)-1-(3-PYRIDYL)-1-BUTANONE [64091-91-4], BENZO[A]PYRENE [50-32-8], Dose [Inhibitor]: 1 UMOL/G IN DIET FOR 10 WK BEGINNING 1 WK PRIOR TO FIRST CARCINOGEN DOSE (STUDY DURATION: 28 WK), Route [Inhibitor]: ORAL, Strain/Sex: A/J/FEMALE, Target Tissue: Type of Lesion: LUNG: TUMOR, Dose [Carcinogen]: 3 UMOL BAP + 3 UMOL NNK IN 0.1 ML COTTONSEED OIL 1X/WK FOR 8 WK (STUDY DURATION: 28 WK), Promoter: NONE","100%, 100%, 0%, not calculated"
same,"tumour outcome (control, treated, inhibition, significance)","Carcinogen: 4-(METHYLNITROSAMINO)-1-(3-PYRIDYL)-1-BUTANONE [64091-91-4], BENZO[A]PYRENE [50-32-8], Dose [Inhibitor]: 3 UMOL/G IN DIET FOR 10 WK BEGINNING 1 WK PRIOR TO FIRST CARCINOGEN DOSE (STUDY DURATION: 28 WK), Route [Inhibitor]: ORAL, Strain/Sex: A/J/FEMALE, Target Tissue: Type of Lesion: LUNG: TUMOR, Dose [Carcinogen]: 3 UMOL BAP + 3 UMOL NNK IN 0.1 ML COTTONSEED OIL 1X/WK FOR 8 WK (STUDY DURATION: 28 WK), Promoter: NONE","100%, 100%, 0%, not calculated"
same,"tumour outcome (control, treated, inhibition, significance)","Carcinogen: 4-(METHYLNITROSAMINO)-1-(3-PYRIDYL)-1-BUTANONE [64091-91-4], BENZO[A]PYRENE [50-32-8], Dose [Inhibitor]: 6 UMOL IN 0.1 ML COTTONSEED OIL 1X/WK FOR 8 WK 2 PRIOR TO EACH CARCINOGEN DOSE (STUDY DURATION: 16 WK), Route [Inhibitor]: GAVAGE, Strain/Sex: A/J/FEMALE, Target Tissue: Type of Lesion: LUNG: TUMOR, Dose [Carcinogen]: 3 UMOL BAP + 3 UMOL NNK IN 0.1 ML COTTONSEED OIL 1X/WK FOR 8 WK (STUDY DURATION: 16 WK), Promoter: NONE","100%, 100%, 0%, not calculated"
same,"tumour outcome (control, treated, inhibition, significance)","Carcinogen: 4-(METHYLNITROSAMINO)-1-(3-PYRIDYL)-1-BUTANONE [64091-91-4], Dose [Inhibitor]: 0.3 UMOL/G IN DIET FOR 10 WK BEGINNING 1 WK PRIOR TO FIRST CARCINOGEN DOSE (STUDY DURATION: 28 WK), Route [Inhibitor]: ORAL, Strain/Sex: A/J/FEMALE, Target Tissue: Type of Lesion: LUNG: TUMOR, Dose [Carcinogen]: 3 UMOL IN 0.1 ML COTTONSEED OIL 1X/WK FOR 8 WK (STUDY DURATION: 28 WK), Promoter: NONE","100%, 100%, 0%, not calculated"
same,"tumour outcome (control, treated, inhibition, significance)","Carcinogen: 4-(METHYLNITROSAMINO)-1-(3-PYRIDYL)-1-BUTANONE [64091-91-4], Dose [Inhibitor]: 1 UMOL/G IN DIET FOR 10 WK BEGINNING 1 WK PRIOR TO FIRST CARCINOGEN DOSE (STUDY DURATION: 28 WK), Route [Inhibitor]: ORAL, Strain/Sex: A/J/FEMALE, Target Tissue: Type of Lesion: LUNG: TUMOR, Dose [Carcinogen]: 3 UMOL IN 0.1 ML COTTONSEED OIL 1X/WK FOR 8 WK (STUDY DURATION: 28 WK), Promoter: NONE","100%, 100%, 0%, not calculated"
same,"tumour outcome (control, treated, inhibition, significance)","Carcinogen: 4-(METHYLNITROSAMINO)-1-(3-PYRIDYL)-1-BUTANONE [64091-91-4], Dose [Inhibitor]: 3 UMOL/G IN DIET FOR 10 WK BEGINNING 1 WK PRIOR TO FIRST CARCINOGEN DOSE (STUDY DURATION: 28 WK), Route [Inhibitor]: ORAL, Strain/Sex: A/J/FEMALE, Target Tissue: Type of Lesion: LUNG: TUMOR, Dose [Carcinogen]: 3 UMOL IN 0.1 ML COTTONSEED OIL 1X/WK FOR 8 WK (STUDY DURATION: 28 WK), Promoter: NONE","100%, 100%, 0%, not calculated"
same,"tumour outcome (control, treated, inhibition, significance)","Carcinogen: 4-(METHYLNITROSAMINO)-1-(3-PYRIDYL)-1-BUTANONE, 64091-91-4, Dose [Inhibitor]: 0, 0.2 UMOL 1/D FOR 4 D ADMINISTERED PRIOR TO CARCINOGEN TREATMENT (STUDY DURATION: 116 D), Route [Inhibitor]: GAVAGE, Strain/Sex: STRAIN A, Target Tissue: Type of Lesion: LUNG ADENOMA, Dose [Carcinogen]: 10 UMOL ONCE 2 HR AFTER FINAL DOSE OF INHIBITOR, Promoter: NONE USED","100%, 100%, 0%, not significant"
same,"tumour outcome (control, treated, inhibition, significance)","Carcinogen: 4-(METHYLNITROSAMINO)-1-(3-PYRIDYL)-1-BUTANONE, 64091-91-4, Dose [Inhibitor]: 0, 0.008% IN DIET FOR 17 WK BEGINNING 1 WK PRIOR TO CARCINOGEN DOSE (STUDY DURATION: 17 WK), Route [Inhibitor]: ORAL, Strain/Sex: STRAIN-A/FEMALE, Target Tissue: Type of Lesion: LUNG: ADENOMA, Dose [Carcinogen]: 10 UMOL IN 0.1 ML SALINE ONCE, Promoter: NONE USED","100%, 96%, 4%, not significant"
same,"tumour outcome (control, treated, inhibition, significance)","Carcinogen: 4-(METHYLNITROSAMINO)-1-(3-PYRIDYL)-1-BUTANONE, 64091-91-4, Dose [Inhibitor]: 0, 1 UMOL 1/D FOR 4 D ADMINISTERED PRIOR TO CARCINOGEN TREATMENT (STUDY DURATION: 116 D), Route [Inhibitor]: GAVAGE, Strain/Sex: STRAIN A, Target Tissue: Type of Lesion: LUNG: ADENOMA, Dose [Carcinogen]: 10 UMOL ONCE, Promoter: NONE USED","100%, 100%, 0%, not significant"
